According to article PMC9304322, “Targeting retinoic acid receptor alpha-corepressor interaction activates chaperone-mediated autophagy and protects against retinal degeneration” (Nature Communications, 2022):
“And” between values parts separate entries of the source, which are not always exact repeats. Identical values can stand only once. Where no end group is shown, it is not given here. The star is where a group is joined. FITC = O=C1OC2(c3ccc(O)cc3Oc3cc(O)ccc32)c2ccc(NC(=S)*)cc21; Ahx = NCCCCCC(=O)O

Columns and labels:
N-CoR1 and RARα = target: T1, N-CoR1 and RARα (Mus musculus, UniProt P11416); assay: Streptavidin pulldown of biotin-CA, immunoblot for N-CoR1 and RARα; type: cell-based; settings: NIH3T3, 10 μM for 24 h
T1 construct: endogenous in cells; host or cells: NIH3T3
T1 sequence (P11416 whole entry): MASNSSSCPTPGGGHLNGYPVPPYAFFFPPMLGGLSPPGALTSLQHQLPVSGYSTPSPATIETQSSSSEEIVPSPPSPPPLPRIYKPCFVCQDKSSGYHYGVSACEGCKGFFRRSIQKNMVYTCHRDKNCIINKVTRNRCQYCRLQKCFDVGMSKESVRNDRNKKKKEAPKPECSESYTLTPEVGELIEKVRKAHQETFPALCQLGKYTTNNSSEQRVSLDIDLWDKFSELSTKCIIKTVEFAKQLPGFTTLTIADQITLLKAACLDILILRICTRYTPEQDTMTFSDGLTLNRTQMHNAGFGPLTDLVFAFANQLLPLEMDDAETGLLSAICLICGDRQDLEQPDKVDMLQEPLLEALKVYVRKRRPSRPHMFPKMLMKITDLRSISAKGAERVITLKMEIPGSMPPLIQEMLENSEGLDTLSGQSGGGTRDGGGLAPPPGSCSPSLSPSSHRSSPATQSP
T1 sequence (Q60974 whole entry partner): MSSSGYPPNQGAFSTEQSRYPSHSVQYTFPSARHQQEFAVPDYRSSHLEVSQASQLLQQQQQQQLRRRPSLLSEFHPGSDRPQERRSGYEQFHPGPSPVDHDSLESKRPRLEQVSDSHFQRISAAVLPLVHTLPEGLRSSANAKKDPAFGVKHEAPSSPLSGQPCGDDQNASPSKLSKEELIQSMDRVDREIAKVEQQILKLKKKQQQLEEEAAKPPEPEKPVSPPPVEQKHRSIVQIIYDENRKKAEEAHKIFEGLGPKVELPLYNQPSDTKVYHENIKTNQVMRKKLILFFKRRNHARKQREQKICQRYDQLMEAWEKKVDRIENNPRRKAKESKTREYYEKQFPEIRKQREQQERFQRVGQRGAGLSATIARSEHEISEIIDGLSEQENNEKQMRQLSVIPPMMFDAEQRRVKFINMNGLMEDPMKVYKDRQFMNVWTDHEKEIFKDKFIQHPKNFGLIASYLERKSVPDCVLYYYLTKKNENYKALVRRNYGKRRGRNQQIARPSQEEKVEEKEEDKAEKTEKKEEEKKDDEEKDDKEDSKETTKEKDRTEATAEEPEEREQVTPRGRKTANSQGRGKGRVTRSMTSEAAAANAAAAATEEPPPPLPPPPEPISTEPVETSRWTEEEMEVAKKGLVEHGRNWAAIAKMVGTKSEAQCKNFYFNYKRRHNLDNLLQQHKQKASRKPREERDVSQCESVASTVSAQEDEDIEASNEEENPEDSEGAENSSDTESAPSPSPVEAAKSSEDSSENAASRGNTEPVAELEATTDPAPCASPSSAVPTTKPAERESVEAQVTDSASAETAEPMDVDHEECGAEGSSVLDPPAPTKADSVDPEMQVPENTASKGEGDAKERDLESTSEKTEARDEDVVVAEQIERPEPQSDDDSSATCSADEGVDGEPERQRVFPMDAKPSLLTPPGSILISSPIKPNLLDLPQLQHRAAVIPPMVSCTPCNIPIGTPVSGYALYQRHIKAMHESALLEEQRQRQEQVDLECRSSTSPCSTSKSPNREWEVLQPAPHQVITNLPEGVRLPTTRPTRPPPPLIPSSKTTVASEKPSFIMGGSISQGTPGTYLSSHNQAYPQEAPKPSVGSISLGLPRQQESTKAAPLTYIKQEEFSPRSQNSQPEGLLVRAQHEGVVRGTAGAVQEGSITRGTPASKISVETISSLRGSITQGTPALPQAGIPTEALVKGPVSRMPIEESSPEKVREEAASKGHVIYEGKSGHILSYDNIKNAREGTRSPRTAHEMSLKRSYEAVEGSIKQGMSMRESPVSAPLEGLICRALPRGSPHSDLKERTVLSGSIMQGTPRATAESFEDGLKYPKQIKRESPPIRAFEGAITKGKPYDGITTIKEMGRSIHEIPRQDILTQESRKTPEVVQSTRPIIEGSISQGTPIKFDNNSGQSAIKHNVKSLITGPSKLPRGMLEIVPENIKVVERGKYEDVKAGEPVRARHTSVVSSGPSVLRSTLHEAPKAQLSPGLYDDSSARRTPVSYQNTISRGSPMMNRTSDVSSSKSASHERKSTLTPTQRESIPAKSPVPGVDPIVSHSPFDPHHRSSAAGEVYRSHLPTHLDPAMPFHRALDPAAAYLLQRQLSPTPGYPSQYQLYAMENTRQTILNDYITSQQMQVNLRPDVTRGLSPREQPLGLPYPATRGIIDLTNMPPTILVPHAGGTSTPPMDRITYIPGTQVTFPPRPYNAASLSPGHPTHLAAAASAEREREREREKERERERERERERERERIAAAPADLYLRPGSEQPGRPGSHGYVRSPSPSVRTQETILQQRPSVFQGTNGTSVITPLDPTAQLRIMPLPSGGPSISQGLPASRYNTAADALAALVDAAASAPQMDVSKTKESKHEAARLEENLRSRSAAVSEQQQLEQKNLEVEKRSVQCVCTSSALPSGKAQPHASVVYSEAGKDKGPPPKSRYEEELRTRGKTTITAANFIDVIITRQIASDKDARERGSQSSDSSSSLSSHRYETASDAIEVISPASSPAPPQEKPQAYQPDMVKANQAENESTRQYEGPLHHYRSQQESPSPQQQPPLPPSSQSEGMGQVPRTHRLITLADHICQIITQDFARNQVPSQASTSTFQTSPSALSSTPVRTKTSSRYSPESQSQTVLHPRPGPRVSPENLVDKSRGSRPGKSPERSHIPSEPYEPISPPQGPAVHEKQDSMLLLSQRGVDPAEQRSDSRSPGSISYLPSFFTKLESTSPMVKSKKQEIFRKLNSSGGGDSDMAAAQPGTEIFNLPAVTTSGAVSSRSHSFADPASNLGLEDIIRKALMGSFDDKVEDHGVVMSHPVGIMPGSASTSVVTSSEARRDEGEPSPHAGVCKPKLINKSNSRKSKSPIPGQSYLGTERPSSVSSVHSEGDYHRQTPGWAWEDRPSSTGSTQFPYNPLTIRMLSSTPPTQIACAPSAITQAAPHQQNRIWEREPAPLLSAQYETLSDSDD

NIH3T3 cells = assay: Microarray transcriptional changes; type: cell-based, mouse; settings: NIH3T3; 20μM for 24 h
Experimental: Total RNA of the treated cells was extracted using TRIzol (Invitrogen) and purified with RNeasy chromatography (Qiagen). Cy3-labeled RNA (0.6 μg) from each condition was hybridized to Agilent Mouse 8x60K. Data were processed using the oligo package and normalized using Robust Multiarray Average (RMA) method. […] Pathway analysis was performed using the STRING database ([…]).

rd10 mice = assay: rd10 mice, single intravitreal injection, retina histology; type: in vivo, mouse; settings: rd10 mice; individual values and Mean CA77
Experimental: C57BL/6 J mice wild-type (WT) and homozygous for the Pde6 mutation (rd10 mouse model of retinal degeneration) were obtained from The Jackson Laboratory and experiments were performed at the age indicated in each part of the study. C57BL/6 KFERQ-Dendra mice were generated by back-crossing FVB KFERQ-Dendra mice with wild-type C57BL/6 mice for 8 generations. Both male and female animals were used in this study in equally distribution groups. However, results from both sexes were pooled, because of absence of significant differences in any of the parameters analyzed after statistical analysis with a mixed model of two-way ANOVA sex and treatment as independent variables and the corresponding measure as dependent variable. All animals were housed in a barrier-controlled facility (19–23 °C 30–60% relative humidity; 12 h light/dark cycle) with ad libitum access to standard chow pellets (protein 19 gm%/carbohydrate 67 gm%/fat 4 gm%) and water. For animal administration of CA compounds, a formula containing 30% PEG 400 (Sigma, #8.0745), 65% of 5% glucose solution, 5% Tween 80 (Sigma, #P1754) was used to dissolve them. CA compounds were prepared freshly by adding 5% DMSO and sonicating for 1 h. Treatment of KFERQ-Dendra mice with the CA compounds was done at 4 months of age by i.p. daily injection of 30 mg/kg bw or vehicle for three consecutive days and tissues collected 6 h after the last injection. In the case of rd10 mice, animals were daily injected from P18 to P25 with CA77 (40 mg/kg bw). In the case of intravitreal administration, a single intravitreal injection was applied at P18 with CA77 (40 µM) in DMSO/PBS and the contralateral eye was injected with PBS and DMSO at same concentration. At P26, mice were sacrificed and eyes fixed overnight with 4% PFA (Sigma, #P6148) in PBS at 4 °C for immunofluorescence or retinas dissected and immediately frozen for biochemistry. Distribution of animals in the vehicle or treatment group was done randomly. ICR (CD-1) outbred 3 months old male mice from ENVIGO were used for the pharmacokinetic studies (see pharmacokinetic section for housing and handling details). All animal studies and procedures complied with ethical regulations, were performed in accordance with the European Union guidelines and the ARVO Statement for the Use of Animals in Ophthalmic and Vision Research and were approved by the Institutional Animal Care and Use Committee at the Albert Einstein College of Medicine, the CSIC Bioetica Comite and approved by the Comunidad de Madrid, PROEX232/17.
12 μm cryosections and immunofluorescence in retinal sections[10] after orienting retinas with a dorsal mark, so comparisons were performed taking into account the precise retinal area. Primary antibodies used in this study were visual (rod) arrestin, cone arrestin, Opsin R/G, transducin, GFAP, N-CoR1. Sections were visualized by confocal microscopy (TCS SP5; Leica Microsystems).
For ONL thickness quantification, DAPI images were taken at 40X in a fluorescence microscope Multidimensional system Leica AF6000 LX coupled to DMI600B microscope and Hamamatsu CCD 9100-O2 camera. At least two sections per animal were analyzed, preferably central sections. Eight images per retina equally distributed along the retina were acquired. Three measures were taken per image and ratio ONL/INL quantified with ImageJ tools. Leica LAS-X (3.7.4.23463) was used for image acquisition and ImageJ (v.2.1.0) was used for image processing. For OS length measures, fixed positions common to all pictures were considered and OS length was measured using ImageJ straight line tool.
Eyes were enucleated, put in a plate with cold PBS and an incision was made under the microscope to let the fixative enter into the eye. […]

[1] = tested on: NIH3T3 cells stably expressing the mCherry-GFP-LC3 reporter; assay: Macroautophagy activity, mCherry-GFP-LC3 reporter; type: cell-based, mouse
Experimental: Cells were transduced with a lentiviral vector expressing mCherry-GFP-LC3[35], fixed and flux determined as the conversion of dual fluorescence puncta (autophagosomes) into only red fluorescent puncta (autolysosomes). Flux was also measured by immunoblot for LC3 in cells incubated for 6 h with 20 mM NH4Cl/100 μM leupeptin, by discounting the intensity of LC3 in non-treated cells from that in cells treated with the inhibitors.

[2] = target: T2, ligand binding domain (LBD) of the human RARα (residues 176-421) (human, UniProt P10276 176-421); assay: fluorescence polarisation; FITC-N-CoR1 (5 nM) with serial two-fold dilutions of RARα LBD from 10 uM, without or with small molecules (10 uM: BMS, CA39, CA77); 20 mM Tris-HCl pH 7.5, 150 mM NaCl, 1 mM EDTA, 5 mM DTT, 10% glycerol; read at 30 min; settings: both partners purified
T2 construct: also called RARα LBD; retinoic acid receptor alpha; source: E. coli BL21(DE3) RIL, purified (Ni-NTA, ULP1 cleavage, subtractive Ni-NTA, Superdex 200); not shown: His6-SUMO, N-terminal, cleaved
T2 sequence (looked up): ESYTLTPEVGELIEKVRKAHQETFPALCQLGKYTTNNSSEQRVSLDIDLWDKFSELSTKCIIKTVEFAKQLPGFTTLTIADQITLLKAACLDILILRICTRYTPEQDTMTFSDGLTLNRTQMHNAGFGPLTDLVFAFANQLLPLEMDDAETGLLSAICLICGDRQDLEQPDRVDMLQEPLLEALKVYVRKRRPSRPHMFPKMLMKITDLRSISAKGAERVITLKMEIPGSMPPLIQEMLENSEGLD

[3] = c0 = 2 (axis unlabelled; ANOVA calls row factor Time)

O=C(CCCCC1SCC2NC(=O)NC21)NCCCOCCOCCOCCCNC(=O)c1ccc(C2=Nc3ccc(Cl)cc3OC2)cc1 (stereo not shown) [biotinylated CA compound]
co-immunoprecipitation of cellular RARα and N-CoR1 (N-CoR1 and RARα): could be co-immunoprecipitated

CC1(C)CC=C(c2cnc3ccccc3c2)c2cc(C(=O)Nc3ccc(C(=O)O)cc3)ccc21 [BMS614, reference compound]
changes in the transcriptome (NIH3T3 cells): marked changes in the transcriptome

CC(=O)Nc1ccc(C2=Nc3ccc(Cl)cc3OC2)cc1 [CA 77]
Fig. 7a, retinal measurement by eccentricity, eccentricity 1 (rd10 mice): 0.2752 and 0.2828 and 0.2675 and 0.4954 and 0.393 and 0.3603 and 0.3938 | Fig. 7a, retinal measurement by eccentricity, eccentricity 2 (rd10 mice): 0.3254 and 0.2696 and 0.3495 and 0.2864 and 0.4558 and 0.3792 and 0.723 | Fig. 7a, retinal measurement by eccentricity, eccentricity 3 (rd10 mice): 0.3333 and 0.3595 and 0.4443 and 0.4969 and 0.8558 and 0.7642 and 0.8417 | Fig. 7a, retinal measurement by eccentricity, eccentricity 4 (rd10 mice): 0.6989 and 0.5535 and 0.938 and 1.0799 and 0.9103 and 0.9911 and 0.7623 | Fig. 7a, retinal measurement by eccentricity, eccentricity -1 (rd10 mice): 0.7616 and 0.2157 and 0.1911 and 0.3575 and 0.223 and 0.305 | Fig. 7a, retinal measurement by eccentricity, eccentricity -2 (rd10 mice): 0.2825 and 0.2446 and 0.25 and 0.4552 and 0.7496 and 0.1825 and 0.2782 | Fig. 7a, retinal measurement by eccentricity, eccentricity -3 (rd10 mice): 0.4178 and 0.4298 and 0.7568 and 0.9291 and 0.9244 and 0.276 and 0.3979

CO[C@H]1C[C@@H]2CC[C@@H](C)[C@@](O)(O2)C(=O)C(=O)N2CCCC[C@H]2C(=O)O[C@H]([C@H](C)C[C@@H]2CC[C@@H](O)[C@H](OC)C2)CC(=O)[C@H](C)/C=C(\C)[C@@H](O)[C@@H](OC)C(=O)[C@H](C)C[C@H](C)/C=C/C=C/C=C/1C [rapamycin, reference compound]
APG (Fig. S3e) [1, 3]: 1.605 | AUT (Fig. S3e) [1, 3]: 1.965 | AV (Fig. S3e) [1, 3]: 3.57 | APG (Fig. S3e) ([1]; c0 = 5 (axis unlabelled)): 2.415 | AUT (Fig. S3e) ([1]; c0 = 5 (axis unlabelled)): 2.129 | AV (Fig. S3e) ([1]; c0 = 5 (axis unlabelled)): 4.544 | APG (Fig. S3e) ([1]; c0 = 10 (axis unlabelled)): 3.3128 | AUT (Fig. S3e) ([1]; c0 = 10 (axis unlabelled)): 3.752 | AV (Fig. S3e) ([1]; c0 = 10 (axis unlabelled)): 7.064 | APG (Fig. S3e) ([1]; c0 = 20 (axis unlabelled)): 5.184 | AUT (Fig. S3e) ([1]; c0 = 20 (axis unlabelled)): 4.731 | AV (Fig. S3e) ([1]; c0 = 20 (axis unlabelled)): 9.915 | APG (Fig. S3e) ([1]; c0 = 30 (axis unlabelled)): 4.9183 | AUT (Fig. S3e) ([1]; c0 = 30 (axis unlabelled)): 11.4046 | AV (Fig. S3e) ([1]; c0 = 30 (axis unlabelled)): 16.3229

B1: fluorescein-tagged peptide of N-CoR1, FITC-Ahx-RLITLADHICQIITQDFAR (peptide)
peptide: {FITC-Ahx}-RLITLADHICQIITQDFAR
notes: peptide of nuclear receptor corepressor 1 (N-CoR1); also called FITC-N-CoR1; N-CoR1 peptide; source: synthetic peptide; bought: Genscript, purity > 95%
binding result [2]: binds
